Experimental data published in US9650334B2 (AbbVie Deutschland GmbH & Co. KG, priority 2013, dated 2017).

Target: T1, human GlyT1c transporter (Homo sapiens, UniProt P48067)
T1 sequence (P48067 1-706): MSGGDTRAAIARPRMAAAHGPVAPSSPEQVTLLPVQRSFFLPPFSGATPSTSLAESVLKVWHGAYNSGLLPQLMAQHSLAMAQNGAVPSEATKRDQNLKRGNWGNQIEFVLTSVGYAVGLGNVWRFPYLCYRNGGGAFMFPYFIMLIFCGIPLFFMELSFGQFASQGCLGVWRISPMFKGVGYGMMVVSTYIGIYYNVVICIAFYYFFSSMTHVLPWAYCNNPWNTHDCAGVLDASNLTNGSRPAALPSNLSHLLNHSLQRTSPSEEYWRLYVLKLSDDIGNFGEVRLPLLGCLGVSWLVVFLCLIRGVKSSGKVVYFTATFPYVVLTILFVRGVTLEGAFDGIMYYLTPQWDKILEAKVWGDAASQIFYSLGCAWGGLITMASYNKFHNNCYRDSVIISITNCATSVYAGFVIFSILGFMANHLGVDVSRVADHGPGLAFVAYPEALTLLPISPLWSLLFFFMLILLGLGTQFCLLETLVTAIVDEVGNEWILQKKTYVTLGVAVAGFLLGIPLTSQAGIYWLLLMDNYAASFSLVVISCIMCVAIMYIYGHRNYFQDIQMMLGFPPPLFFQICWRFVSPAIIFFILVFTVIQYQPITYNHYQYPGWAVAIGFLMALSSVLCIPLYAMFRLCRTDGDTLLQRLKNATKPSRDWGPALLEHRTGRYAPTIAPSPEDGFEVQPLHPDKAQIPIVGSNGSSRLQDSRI
Assay: Radioligand binding assays using recombinant CHO cell membranes expressing human GlyT1
Conditions: radioligand binding to human GlyT1c transporter-expressing CHO cell membranes

Ki (Ki) [nM] | Ki [nM] | Molecule
≤ 100 |  | Cn1cnc(S(=O)(=O)N2C[C@H](Nc3ccc(F)c(Cl)c3)[C@@H](C3OCCCO3)C2)c1 [Example 916, (3R,4S)-N-(3-chloro-4-fluorophenyl)-4-(1,3-dioxan-2-yl)-1-[(1-methyl-1H-imidazol-4-yl)sulfonyl]pyrrolidin-3-amine]
≤ 100 |  | Cc1cccc(N[C@H]2CN(S(=O)(=O)c3cn(C)cn3)C[C@@H]2C2OCCCO2)c1 [Example 917, (3R,4S)-4-(1,3-dioxan-2-yl)-1-[(1-methyl-1H-imidazol-4-yl)sulfonyl]-N-(3-methylphenyl)pyrrolidin-3-amine]
≤ 1000 |  | Cn1cnc(S(=O)(=O)N2CC(Cc3cccc(C(F)(F)F)c3)C(C3OCCCO3)C2)c1 (stereo not shown) [Example 918, 4-({3-(1,3-dioxan-2-yl)-4-[3-(trifluoromethyl)benzyl]pyrrolidin-1-yl}sulfonyl)-1-methyl-1H-imidazole]
≤ 10000 |  | Cn1cc(S(=O)(=O)N2CC(Cc3cccc(C(F)(F)F)c3)C(C3OCCCO3)C2)nn1 (stereo not shown) [Example 919, 4-({3-(1,3-dioxan-2-yl)-4-[3-(trifluoromethyl)benzyl]pyrrolidin-1-yl}sulfonyl)-1-methyl-1H-1,2,3-triazole]
≤ 10 |  | Cn1cnc(S(=O)(=O)N2C[C@H](Nc3cccc(OC(F)(F)F)c3)[C@@H](C3OCC4(CC4)CO3)C2)c1 [Example 920, (3R,4S)-4-(5,7-dioxaspiro[2.5]oct-6-yl)-1-[(1-methyl-1H-imidazol-4-yl)sulfonyl]-N-[3-(trifluoromethoxy)phenyl]pyrrolidin-3-amine]
≤ 100 |  | C[C@@H]1C[C@@H](C)OC([C@H]2CN(S(=O)(=O)c3cn(C)cn3)C[C@@H]2Nc2cccc(OC(F)(F)F)c2)O1 (stereo partly drawn) [Example 921, (3R,4S)-4-[(4R,6R)-4,6-dimethyl-1,3-dioxan-2-yl]-1-[(1-methyl-1H-imidazol-4-yl)sulfonyl]-N-[3-(trifluoromethoxy)phenyl]pyrrolidin-3-amine]
≤ 10 |  | C[C@H]1C[C@H](C)OC([C@H]2CN(S(=O)(=O)c3cn(C)cn3)C[C@@H]2Nc2cccc(OC(F)(F)F)c2)O1 (stereo partly drawn) [Example 922, (3R,4S)-4-[(4S,6S)-4,6-dimethyl-1,3-dioxan-2-yl]-1-[(1-methyl-1H-imidazol-4-yl)sulfonyl]-N-[3-(trifluoromethoxy)phenyl]pyrrolidin-3-amine]
≤ 100 |  | Cc1cc(N[C@H]2CN(S(=O)(=O)c3cn(C)cn3)C[C@@H]2C2OCCCO2)ccc1F [Example 923, (3R,4S)-4-(1,3-dioxan-2-yl)-N-(4-fluoro-3-methylphenyl)-1-[(1-methyl-1H-imidazol-4-yl)sulfonyl]pyrrolidin-3-amine]
≤ 10 |  | Cn1cnc(S(=O)(=O)N2C[C@H](Nc3ccc(F)c(OC(F)(F)F)c3)[C@@H](C3OCCCO3)C2)c1 [Example 924, (3R,4S)-4-(1,3-dioxan-2-yl)-N-[4-fluoro-3-(trifluoromethoxy)phenyl]-1-[(1-methyl-1H-imidazol-4-yl)sulfonyl]pyrrolidin-3-amine]
≤ 10 |  | Cn1cnc(S(=O)(=O)N2C[C@H](Nc3cccc(OC(F)F)c3)[C@@H](C3OCCCO3)C2)c1 [Example 925, (3R,4S)-N-[3-(difluoromethoxy)phenyl]-4-(1,3-dioxan-2-yl)-1-[(1-methyl-1H-imidazol-4-yl)sulfonyl]pyrrolidin-3-amine]
≤ 10 |  | CC(C)c1cccc(N[C@H]2CN(S(=O)(=O)c3cn(C)cn3)C[C@@H]2C2OCCCO2)c1 [Example 926, (3R,4S)-4-(1,3-dioxan-2-yl)-1-[(1-methyl-1H-imidazol-4-yl)sulfonyl]-N-[3-(propan-2-yl)phenyl]pyrrolidin-3-amine]
≤ 10 |  | Cn1cnc(S(=O)(=O)N2CC(Nc3ccc(F)c(C(F)(F)F)c3)C(c3ccc(F)cn3)C2)c1 (stereo not shown) [Example 927, 4-(5-fluoropyridin-2-yl)-N-[4-fluoro-3-(trifluoromethyl)phenyl]-1-[(1-methyl-1H-imidazol-4-yl)sulfonyl]pyrrolidin-3-amine]
≤ 10 |  | Cn1cnc(S(=O)(=O)N2C[C@H](Nc3cccc(OCC(F)F)c3)[C@@H](C3OCCCO3)C2)c1 [Example 928, (3R,4S)-N-[3-(2,2-difluoroethoxy)phenyl]-4-(1,3-dioxan-2-yl)-1-[(1-methyl-1H-imidazol-4-yl)sulfonyl]pyrrolidin-3-amine]

Further lines, the molecule ahead of its results:

Molecule | Ki (Ki) [nM] | Ki [nM]
CCCCCN(C)[C@H]1CN(S(=O)(=O)c2cn(C)cn2)C[C@@H]1C1OCCCO1 [Example 907, (3R,4S)-4-(1,3-dioxan-2-yl)-N-methyl-1-[(1-methyl-1H-imidazol-4-yl)sulfonyl]-N-pentylpyrrolidin-3-amine] | ≤ 1000 | 
CCCCCN(CCCCC)[C@H]1CN(S(=O)(=O)c2cn(C)cn2)C[C@@H]1C1OCCCO1 [Example 908, (3R,4S)-4-(1,3-dioxan-2-yl)-1-[(1-methyl-1H-imidazol-4-yl)sulfonyl]-N,N-dipentylpyrrolidin-3-amine] | ≤ 10000 | 
CCCCCCN[C@H]1CN(S(=O)(=O)c2cn(C)cn2)C[C@@H]1C1OCCCO1 [Example 910, (3R,4S)-4-(1,3-dioxan-2-yl)-N-hexyl-1-[(1-methyl-1H-imidazol-4-yl)sulfonyl]pyrrolidin-3-amine] | ≤ 100 | 
Cn1cnc(S(=O)(=O)N2C[C@H](Nc3cc(C(F)(F)F)c(Cl)cn3)[C@@H](C3OCCCO3)C2)c1 [Example 911, 5-chloro-N-{(3R,4S)-4-(1,3-dioxan-2-yl)-1-[(1-methyl-1H-imidazol-4-yl)sulfonyl]pyrrolidin-3-yl}-4-(trifluoromethyl)pyridin-2-amine] | ≤ 10 | 
Cn1cnc(S(=O)(=O)N2C[C@H](Nc3ccc(F)c(C(F)(F)F)c3)[C@@H](C3OCCCO3)C2)c1 [Example 912, (3R,4S)-4-(1,3-dioxan-2-yl)-N-[4-fluoro-3-(trifluoromethyl)phenyl]-1-[(1-methyl-1H-imidazol-4-yl)sulfonyl]pyrrolidin-3-amine] | ≤ 10 | 
Cn1cnc(S(=O)(=O)N2CC(Nc3cccc(OC(F)(F)F)c3)C(N3CCCCC3)C2)c1 (stereo not shown) [Example 913, 1-[(1-methyl-1H-imidazol-4-yl)sulfonyl]-4-(piperidin-1-yl)-N-[3-(trifluoromethoxy)phenyl]pyrrolidin-3-amine] | ≤ 10 | 
Cn1cnc(S(=O)(=O)N2C[C@H](Nc3cccc(Cl)c3)[C@@H](C3OCCCO3)C2)c1 [Example 914, (3R,4S)-N-(3-chlorophenyl)-4-(1,3-dioxan-2-yl)-1-[(1-methyl-1H-imidazol-4-yl)sulfonyl]pyrrolidin-3-amine] | ≤ 10 | 
Cn1cnc(S(=O)(=O)N2C[C@H](Nc3cccc(C(F)(F)F)c3)[C@@H](C3OCCCO3)C2)c1 [Example 915, (3R,4S)-4-(1,3-dioxan-2-yl)-1-[(1-methyl-1H-imidazol-4-yl)sulfonyl]-N-[3-(trifluoromethyl)phenyl]pyrrolidin-3-amine] | ≤ 10 | 
(3R,4S)-N-[2-chloro-4-(trifluoromethyl)benzyl]-1-[(1-methyl-1H-imidazol-4-yl)sulfonyl]-4-phenylpyrrolidin-3-amine [Example 394] |  | ≤ 10
N-{(3R,4S)-4-(4-fluorophenyl)-1-[(1-methyl-1H-imidazol-4-yl)sulfonyl]pyrrolidin-3-yl}-6-(2-methylpropoxy)pyrimidin-4-amine [Example 718] |  | ≤ 100
Trans-N-[4-chloro-3-(trifluoromethoxy)phenyl]-1-[(1-methyl-1H-imidazol-4-yl)sulfonyl]-4-[(3S)-tetrahydro-2H-pyran-3-yl]pyrrolidin-3-amine [Example 793] |  | ≤ 10000
Trans-N-[4-chloro-3-(trifluoromethyl)phenyl]-1-[(1-methyl-1H-imidazol-4-yl)sulfonyl]-4-[(3S)-tetrahydro-2H-pyran-3-yl]pyrrolidin-3-amine [Example 792] |  | ≤ 10000
